# Assay results from publication PMC12040169 (PLOS Biology, 2025).
# Experiment: in vitro
# Details: human, hela cells, % viability
row,SMILES,"viability at 28.5 h, 10 µM"
1,Cc1ccccc1OCC(=O)NCc1ccc(C(=O)O)cc1 [CBK287155],104%
2,O=C(O)CNC(=O)CN1C(=O)c2cc(Cl)c(Cl)cc2C1=O [CBK287156],92.3%
3,O=C(O)CC1C(=O)NCCN1Cc1c(F)cccc1Cl (stereo not drawn) [CBK287157],88.6%
4,CCC(NC(=O)c1ccc(C#CC2(O)CCCCC2)cc1)C(=O)O (stereo not drawn) [CBK287160],96.8%
5,CC(=O)N(C)c1ccc(NC(=O)/C=C/C(=O)O)cc1 [CBK287162],87%
6,O=C(O)c1cccc(NCC(=O)c2ccccc2)c1 [CBK287163],88.8%
7,O=C1c2ccccc2NC(C(=O)O)(c2ccccc2)N1c1ccccc1Cl (stereo not drawn) [CBK287169],81%
8,O=C(O)CCCNS(=O)(=O)/C=C/c1ccccc1 [CBK287170],85.1%
9,CCOc1ccc(S(=O)(=O)Nc2ccc(C(=O)O)cc2)cc1 [CBK287171],89.9%
10,O=C(O)c1ccc2c(c1)C(=O)N(c1cccnc1)C2=O [CBK287173],84.3%
11,O=C(CCCc1c[nH]c2ccccc12)Nc1cccc(C(=O)O)c1 [CBK287175],104%
12,O=C(O)c1cccnc1SCc1cc2c(cc1Cl)OCO2 [CBK287178],93.9%
13,CCc1ccccc1NC(=O)CN1CCCCC1C(=O)O (stereo not drawn) [CBK287179],92.4%
14,O=C(O)c1ccccc1S(=O)(=O)CC(=O)N1CCCCC1 [CBK287180],89.1%
15,Cc1ccc(C2CCC(C(=O)O)C(C(=O)O)C2)cc1C (stereo not drawn) [CBK287184],98.2%
16,Nc1nc(-c2ccc(Cl)cc2)c(CC(=O)O)s1 [CBK287188],80%
17,COc1ccccc1NC(CC(=O)c1ccccc1)C(=O)O (stereo not drawn) [CBK287190],83.8%
18,O=C(O)CCC(=O)CCC(=O)c1ccc(F)cc1 [CBK287191],87.3%
19,O=C(O)CCN1C(=O)COc2ccc(Cl)cc21 [CBK287192],107%
20,Cc1ccc(C(=O)CC(C(=O)O)c2cn(CCC#N)c3ccccc23)cc1 (stereo not drawn) [CBK287194],85.8%
21,O=C(O)C1CCN(c2c(-c3ccccc3)c3cc(Cl)ccc3[nH]c2=O)CC1 [CBK287198],87.3%
22,CCCn1cnc2sc(C(=O)O)c(C)c2c1=O [CBK287199],96%
23,CCCNC(=O)CSc1ncccc1C(=O)O [CBK287202],78.6%
24,Cc1ccc(CN(c2ccc(C(=O)O)cc2)S(C)(=O)=O)cc1 [CBK287203],85%

row,SMILES,"viability at 28.5 h, 10 µM"
1,CC(C)(C)NC(=O)COc1ccc(CNCc2ccc(C(=O)O)cc2)cc1 [CBK287204],78.1%
2,CCCCNCC(=O)Nc1sc2c(c1C(=O)O)CCCC2 [CBK287207],83.7%
3,O=C(O)CCC1C(=O)CCC1(C(=O)O)c1ccccc1 (stereo not drawn) [CBK287208],108%
4,O=C(O)C1CCN(C2C(=O)Nc3ccc(Cl)cc3C2c2ccccc2)CC1 (stereo not drawn) [CBK287210],94.4%
5,O=C(O)C1CC(=O)N(CCc2c[nH]c3ccc(Cl)cc23)C1 (stereo not drawn) [CBK287211],91%
6,CC(C)CC(NC(=O)C1CCC(C)CC1)C(=O)O (stereo not drawn) [CBK287212],88.2%
7,O=C(O)[C@@H]1CSC(c2ccc3c(c2)OCO3)N1 (stereo partly drawn) [CBK287214],89.8%
8,CN(C)S(=O)(=O)c1ccc(CCC(=O)O)cc1 [CBK287216],92%
9,O=C(O)CCSc1nnnn1-c1ccccc1 [CBK287217],88.4%
10,O=C(O)Cn1c(=O)[nH]c2c(-c3ccccc3)c[nH]c2c1=O [CBK287218],87.2%
11,NC(CSC12CC3CC(CC(C3)C1)C2)C(=O)O (stereo not drawn) [CBK287219],88.2%
12,O=C(O)CC(CN1C(=O)c2ccccc2C1=O)C(=O)c1ccccc1 (stereo not drawn) [CBK287221],92.4%
13,O=C(O)/C=C/C(=O)NCCc1c[nH]c2ccccc12 [CBK287222],93%
14,O=C(O)CCc1ccc(S(=O)(=O)N2CCOCC2)cc1 [CBK287224],90.1%
15,CCC(CC)NS(=O)(=O)c1cccc(C(=O)O)c1 [CBK287225],88.3%
16,CC12CC(NC(=O)N1c1ccc(C(=O)O)cc1)c1ccccc1O2 (stereo not drawn) [CBK287226],82.2%
17,O=C(O)c1ccc(N2C(=O)CC(N3CCN(c4cccc(C(F)(F)F)c4)CC3)C2=O)cc1 (stereo not drawn) [CBK287228],93.3%
18,CC(C)(C)NC(=O)COc1ccc(CNc2ccc(C(=O)O)c(Cl)c2)cc1 [CBK287230],111%
19,COc1ccc(-c2nnc(SCC(=O)O)n2C)cc1 [CBK287232],93%
20,COc1ccc(C2NC(C(=O)O)C3C(=O)N(c4ccc(C)cc4)C(=O)C23)c(OC)c1 (stereo not drawn) [CBK287233],90.2%
21,CC1CCC(C(=O)Nc2ccc(C(=O)O)cc2)CC1 (stereo not drawn) [CBK287234],94.8%
22,CCCOc1ccc(N2C(=O)CC(N3CCC(C(=O)O)CC3)C2=O)cc1 (stereo not drawn) [CBK287235],102%
23,O=C(O)C(Cc1c[nH]c2ccccc12)NCC1CCCCC1 (stereo not drawn) [CBK287238],110%
24,CS(=O)(=O)N(Cc1ccccc1F)c1ccccc1C(=O)O [CBK287239],104%

row,SMILES,"viability at 28.5 h, 10 µM"
1,COc1ccc(NC(=O)c2cnn3c2NC(C(=O)O)=CC3c2ccccc2)cc1 (stereo not drawn) [CBK287240],101%
2,CC(=O)NCCCCCC(=O)Nc1ccc(C(=O)O)cc1 [CBK287241],101%
3,O=C(O)c1ccc(CNCC(O)c2ccccc2)cc1 (stereo not drawn) [CBK287243],109%
4,O=C(O)Cn1nc(-c2ccccc2)c2ccccc2c1=O [CBK287249],88%
5,CN(C)CCNCc1ccc(-c2cccc(C(=O)O)c2)o1 [CBK287250],89.9%
6,CCCN1C(C)=NS(=O)(=O)c2cc(C(=O)O)ccc21 [CBK287251],92.4%
7,COc1ccc(/C=C/C(=O)O)cc1S(=O)(=O)NCc1ccccc1 [CBK287252],87.9%
8,CCOc1ccccc1C1C=C(C(=O)O)Nc2c(C(=O)Nc3ccccc3)cnn21 (stereo not drawn) [CBK287253],93.7%
9,Cc1ccc2nc(C(=O)O)cc(OCC(=O)Nc3ccccc3F)c2c1 [CBK287255],88.8%
10,Cc1ccc2ncnc(NCCCCCC(=O)O)c2c1 [CBK287256],91.4%
11,O=C(O)CNCc1ccc(-c2ccc(Cl)cc2)o1 [CBK287258],102%
12,COc1ccc(CN2C(=O)CC(C(=O)O)S/C2=N\c2ccc(Cl)cc2)cc1 (stereo not drawn) [CBK287259],106%
13,Cc1ccc(-c2noc(-c3cccnc3N3CCC(C(=O)O)CC3)n2)cc1 [CBK287260],90.3%
14,O=C(O)CCN1CCN(c2ccc(F)cc2)CC1 [CBK287262],79.6%
15,O=C(O)CSC1=CC(=O)N(c2ccc(Br)cc2)C1=O [CBK287263],81.5%
16,COc1ncccc1C(=O)NCC(CC(=O)O)c1ccc(Cl)cc1 (stereo not drawn) [CBK287264],92.1%
17,O=C(O)c1ccc(CNCCc2c[nH]c3ccccc23)cc1 [CBK287265],87.6%
18,CCN1C(=O)CC(C(=O)O)S/C1=N\c1ccc(OC)cc1 (stereo not drawn) [CBK287266],105%
19,O=C(O)C1(NCc2ccc(F)cc2)CCCCC1 [CBK287270],87.1%
20,Cc1cc(C)nc(N2CCN(CCC(=O)O)CC2)n1 [CBK287272],97%
21,Cc1onc(-c2ccccc2)c1C(=O)n1cccn1 [CBK287274],97.5%
22,CNS(=O)(=O)c1ccc2c3c(cccc13)C(=O)N2 [CBK287275],89.7%
23,Fc1cnc(Nc2ccccc2)nc1N1CCOCC1 [CBK287279],76.5%
24,Cc1nn(-c2ccccn2)c2c1-c1oncc1CC2 [CBK287280],90.7%

row,SMILES,"viability at 28.5 h, 10 µM"
1,COc1ccc(C2CC(c3ccccc3O)=NN2)cc1 (stereo not drawn) [CBK287281],77.8%
2,O=C(Nc1ccc(F)cc1)C1CC(=O)n2c(nc3ccccc32)N1 (stereo not drawn) [CBK287282],101%
3,c1nc2nc[nH]c(N3CCN(Cc4ccc5c(c4)OCO5)CC3)c-2n1 [CBK287283],83.5%
4,Cc1ccc(NC(=O)c2cnc3ccc(C)cn3c2=O)cc1 [CBK287285],90.2%
5,Cc1ccc2ncc(C(=O)Nc3ccc(F)cc3F)c(=O)n2c1 [CBK287286],95.6%
6,CCOc1ccc(C(=O)Nc2nonc2CC)cc1 [CBK287287],94.3%
7,Fc1ccc(OCc2nn3cnnc3s2)cc1 [CBK287288],102%
8,CC(C)(C)c1nnc2sc(-c3cccnc3)nn12 [CBK287289],112%
9,Cc1csc2ncc(C(=O)NCc3ccc4c(c3)OCO4)c(=O)n12 [CBK287292],109%
10,CCOc1ccc2nc(NC(=O)CC)sc2c1 [CBK287295],107%
11,COc1ccc(-c2cn3cccnc3n2)cc1NC(=O)c1ccccc1 [CBK287296],73.8%
12,O=C(CSc1ccc(-c2ccncc2)nn1)Nc1ccc(F)cc1 [CBK287297],91%
13,CC1CCc2nc(NC(=O)c3ccccc3)sc2C1 (stereo not drawn) [CBK287298],97.2%
14,COc1ccc(C(=O)Nc2nc3c(C)cccc3s2)c(OC)c1 [CBK287301],82.6%
15,Cc1ccc(C(=O)Nc2nc3ccc4nc(C)sc4c3s2)cc1 [CBK287305],91.8%
16,COc1ccc(C(=O)Nc2nc3ccc(OC)cc3s2)cc1 [CBK287306],96.5%
17,CCOc1cccc2sc(NC(=O)CC)nc12 [CBK287307],86.5%
18,Cc1cc(C)c2nc(NC(=O)c3ccccc3)sc2c1 [CBK287308],97.9%
19,CC(=O)c1ccc(C(=O)Nc2ccc3nc(C)sc3c2)cc1 [CBK287310],95.5%
20,COc1ccc(C(=O)Nc2nc3ccc(NC(C)=O)cc3s2)cc1OC [CBK287311],101%
21,CC(=O)Nc1nc(-c2cc3ccccc3oc2=O)cs1 [CBK287312],106%
22,Cc1ccn2cc(-c3cc4c(ccc5ccccc54)oc3=O)nc2c1 [CBK287313],100%
23,CC(=O)c1sc(NC(=O)c2ccccc2Oc2ccccc2)nc1C [CBK287314],90.9%
24,CC(=O)Nc1nc(-c2ccc(Cl)s2)cs1 [CBK287317],89.5%
